*1 amine or outer side, *2 acyl side, *3 side chain or, on linkers, in order; H or OH if unused. Where a SMILES comes first, the peptide text is derived from it. [ ]: non-standard residue; d: D form. The star is where a group is joined. N(CH2CH2CO)Gly = O=C(CN(CCC(=O)[*:3])[*:1])[*:2]; NMe2Val = CC(C)[C@@H](C(=O)*)N(C)C; NHhexadecyl = CCCCCCCCCCCCCCCCN*; X1 = O=C(CN(Cc1cncs1)[*:1])[*:2]; NFurfurylGly = O=C(O)CNCc1ccco1; NMe(benzyl) = CN(Cc1ccccc1)*; NMeV = CN[C@H](C(=O)O)C(C)C; X2 = O=C(NCCCCN*)OCc1ccccc1; Nphe = O=C(O)CNCc1ccccc1; NHcHex = C1CCC(N*)CC1; NHBn = c1ccc(CN*)cc1; NHHex = CCCCCCN*; NHBu = CCCCN*
Assays:
MDA-MB-468 cells = conditions: 48 h
Experimental: (§1) The anticancer activity of the dolastatin 15 analogs 5a‐i was tested in comparison with cemadotin and the N‐methylated cemadotin derivative 5j against three human cancer cell lines, namely prostate adenocarcinoma PC‐3 cells, colorectal carcinoma HCT‐116 cells, and triple‐negative breast cancer MDA‐MB‐468 cells. In vitro cell viability and cytotoxicity assays were conducted and IC50 curves, and values were determined using the resazurin assay and fluorometric read‐out after 48 h cells’ treatment with the compounds in concentrations covering the micro‐ and nanomolar range (Figure S83, Supporting Information, SI).
(§2) Material and methods for cell-based assays
(§3) Human cell culture materials and cultivation methodology
(§4) The in vitro cell viability and cytotoxicity assays were performed with the human prostate cancer cell line PC-3, the human colorectal cancer cell line HCT-116 and the human triple-negative breast cancer cell line MDA-MB-468; the fluorescence microscopic inspections just with PC-3 cells. The cell lines were obtained from DSMZ (Braunschweig, Germany) and ATCC (Manassas, VA, USA) and cultivated in their specific growth medium. PC-3 cells were cultivated in RPMI 1640 supplemented with 1% (v/v) glutamine, and 10% (v/v) he at-inactivated fetal calf serum (FCS); HCT-116 was cultured in McCoy’s 5a Modified Medium supplemented with 10% (v/v) heat-inactivated FCS; and for MDA-MB-468, DMEM high glucose (4.5 g/L) supplemented with 10% (v/v) heat-inactivated FCS was used.
(§5) All the basal culture media and supplements, like glutamine and FCS, PBS and 0.05% trypsin-EDTA for cell detachment were purchased from Capricorn Scientific GmbH (Ebsdorfergrund, Germany). Cell culture plastics were used from TPP (Trasadingen, Switzerland), Greiner Bio-One (Frickenhausen, Germany) and Sarstedt (Nürnbrecht, Germany). Digitonin was purchased from Riedel De Haën (Seelze, Germany) and DMSO from Duchefa Biochemie (Haarlem, The Netherlands). Resazurin was used from Sigma-Aldrich Chemie GmbH (Taufkirchen, Germany). The tubulin-specific dye reagent SiR-tubulin kit (SC002) and verapamil were purchased from Spirochrome AG (Stein am Rhein, Switzerland), the nuclei stain H33342 was from Thermo Fisher Scientific (Waltham, MA, USA).
(§6) Cultivation was routinely done in T-75 flasks in a humidified atmosphere with 5% CO2 at 37 °C until subconfluency (~ 70-80%) was reached, and the cells were ready for subsequent sub-culturing or assay usage. For that, the adherent cells were rinsed with PBS and detached with trypsin/EDTA (0.05% in PBS) prior to cell passaging and seeding.
(§7) Cell viability assay - methodology
(§8) The impacts of the newly synthesized dolastatin derivatives analogs on the viability and proliferation of the three human cancer cell lines were investigated by performing fluorometric resazurin-based cell viability assays, following a protocol well established in our lab.[3,4] In 3 R. Kufka, R. Rennert, G. N. Kaluđerović, L. Weber, W. Richter, L. A. Wessjohann, Beilstein J. Org. Chem.
(§9) 4 Y. T. H. Lam, J. Hoppe, Q. N. Dang; A. Porzel, A. Soboleva, W. Brandt, R. Rennert, H. Hussain, M. D. Davari, […]
(§10) brief, the cells were seeded in low densities in 96-well plates (PC-3: 3.000 cells/well; HCT-116: 5.000 cells/well; MDA-MB-468: 10.000 cells/well) yielding a seeding confluency of ~ 10 – 20%, and were allowed to adhere overnight. Subsequently, the cells were treated for 48 h with dilutions series (25.6 pM – 10 µM in 5-fold dilutions) of the test compounds (1 mM DMSO stocks). For control measures, cells were treated in parallel with 1% DMSO (negative control, representing the final DMSO content of the highest concentrated sample point, for data normalization set to 100% cell viability) and 100 µM digitonin (positive control, for data normalization set to 0% cell viability). After finalization of the 48 h incubation, the incubation media were discarded, and cells were rinsed once with PBS. Resazurin solution in basal medium

PC-3 cells = conditions: 48 h
Experimental: as §1, §2, §3, §4, §5, §6, §7, §8, §9, §10

HCT-116 cells = conditions: 48 h
Experimental: as §1, §2, §3, §4, §5, §6, §7, §8, §9, §10

[1] = test system: PC-3, HCT-116 and MDA-MB-468 cells; conditions: all cancer cells tested; resazurin, 48 h (Figure S84)
Experimental: as §10

[2] = test system: microtubule network in PC-3 cells

SMILES	IC50 (MDA-MB-468 cells)	IC50 (PC-3 cells)	IC50 (HCT-116 cells)	cytotoxic profile [1]	cell and nuclear morphology after treatment [2]	effect on microtubule structure [2]
CC(C)[C@H](NC(=O)[C@H](C(C)C)N(C)C)C(=O)N(C)[C@H](C(=O)N1CCC[C@H]1C(=O)N(CC(=O)NC1CCCCC1)[C@@H](Cc1ccccc1)C(=O)NCc1ccccc1)C(C)C [Peptide 11d]	> 10000 nM	> 10000 nM	> 10000 nM	–	–	–
CC(C)[C@H](NC(=O)[C@H](C(C)C)N(C)C)C(=O)N(C)[C@H](C(=O)N1CCC[C@H]1C(=O)N(CC(=O)NC1CCCCC1)[C@@H](Cc1ccccc1)C(=O)NCc1ccco1)C(C)C [Peptide 11e]	> 10000 nM	9300 nM	> 10000 nM	–	–	–
CC(C)[C@H](NC(=O)[C@H](C(C)C)N(C)C)C(=O)N(C)[C@H](C(=O)N1CCC[C@H]1C(=O)N1CCC[C@H]1C(=O)N(CC(=O)NC1CCCCC1)Cc1ccccc1)C(C)C [Peptide 5d] (NMe2Val-V[NMeV]PP[Nphe]-NHcHex)	1400 nM	1200 nM	1900 nM	–	–	–
CCCCCCNC(=O)CN(C(=O)[C@@H]1CCCN1C(=O)[C@H](C(C)C)N(C)C(=O)[C@@H](NC(=O)[C@H](C(C)C)N(C)C)C(C)C)[C@@H](C)C(=O)NCc1ccccc1 [Peptide 11h]	–	> 10000 nM	–	–	–	–
CCCCCCCCCCCCCCCCNC(=O)CCN(CC(=O)NC1CCCCC1)C(=O)[C@@H]1CCCN1C(=O)[C@H](C(C)C)N(C)C(=O)[C@@H](NC(=O)[C@H](C(C)C)N(C)C)C(C)C [Peptide 11i] (NMe2Val-V[NMeV]P[N(CH2CH2CO)Gly](NHhexadecyl)-NHcHex)	3400 nM	2300 nM	6400 nM	inducing the death of all cancer cells tested	–	–
CCCCNC(=O)CN(Cc1cncs1)C(=O)[C@@H]1CCCN1C(=O)[C@@H]1CCCN1C(=O)[C@H](C(C)C)N(C)C(=O)[C@@H](NC(=O)[C@H](C(C)C)N(C)C)C(C)C [Peptide 5h] (NMe2Val-V[NMeV]PP[X1]-NHBu)	24 nM	30 nM	50 nM	–	enlarged and showed strongly fragmented nuclei	microtubule networks appear to be stabilized rather than destabilized
CC(C)[C@H](NC(=O)[C@H](C(C)C)N(C)C)C(=O)N(C)[C@H](C(=O)N1CCC[C@H]1C(=O)N1CCC[C@H]1C(=O)N(CC(=O)NCc1ccccc1)Cc1ccccc1)C(C)C [Peptide 5c] (NMe2Val-V[NMeV]PP[Nphe]-NHBn)	1100 nM	1900 nM	2300 nM	–	–	–
CC(C)C[C@@H](C(=O)NCc1ccccc1)N(CC(=O)NC(C)(C)C)C(=O)[C@@H]1CCCN1C(=O)[C@H](C(C)C)N(C)C(=O)[C@@H](NC(=O)[C@H](C(C)C)N(C)C)C(C)C [Peptide 11b]	> 10000 nM	> 10000 nM	> 10000 nM	–	–	–
CCCCNC(=O)CN(C(=O)[C@@H]1CCCN1C(=O)[C@H](C(C)C)N(C)C(=O)[C@@H](NC(=O)[C@H](C(C)C)N(C)C)C(C)C)[C@@H](C)C(=O)NCc1ccc(OC)cc1 [Peptide 11g]	> 10000 nM	> 10000 nM	> 10000 nM	–	–	–
CCCCCCCCCCCCCCCCNC(=O)CN(Cc1ccccc1)C(=O)[C@@H]1CCCN1C(=O)[C@@H]1CCCN1C(=O)[C@H](C(C)C)N(C)C(=O)[C@@H](NC(=O)[C@H](C(C)C)N(C)C)C(C)C [Peptide 5f] (NMe2Val-V[NMeV]PP[Nphe]-NHhexadecyl)	2100 nM	2100 nM	2700 nM	–	–	–
COc1ccc(CNC(=O)[C@H](CC(C)C)N(CC(=O)NCc2ccccc2)C(=O)[C@@H]2CCCN2C(=O)[C@H](C(C)C)N(C)C(=O)[C@@H](NC(=O)[C@H](C(C)C)N(C)C)C(C)C)cc1 [Peptide 11a]	> 10000 nM	> 10000 nM	> 10000 nM	–	–	–
CC(C)[C@H](NC(=O)[C@H](C(C)C)N(C)C)C(=O)N(C)[C@H](C(=O)N1CCC[C@H]1C(=O)N1CCC[C@H]1C(=O)N(C)Cc1ccccc1)C(C)C [Peptide 5j, N‐Methyl‐cemadotin] (NMe2Val-V[NMeV]PP-{NMe(benzyl)})	> 10000 nM	> 10000 nM	> 10000 nM	–	–	–
CC(C)[C@H](NC(=O)[C@H](C(C)C)N(C)C)C(=O)N(C)[C@H](C(=O)N1CCC[C@H]1C(=O)N1CCC[C@H]1C(=O)N(CC(=O)NCCCCNC(=O)OCc1ccccc1)Cc1ccccc1)C(C)C [Peptide 5e] (NMe2Val-V[NMeV]PP[Nphe]-X2)	1200 nM	1600 nM	4300 nM	–	–	–
CC(C)[C@H](NC(=O)[C@H](C(C)C)N(C)C)C(=O)N(C)[C@H](C(=O)N1CCC[C@H]1C(=O)N(CC(=O)NCc1ccccc1)[C@@H](Cc1ccccc1)C(=O)NCc1ccco1)C(C)C [Peptide 11f]	> 10000 nM	> 10000 nM	> 10000 nM	–	–	–
CCCCNC(=O)CN(Cc1ccccc1)C(=O)[C@@H]1CCCN1C(=O)[C@@H]1CCCN1C(=O)[C@H](C(C)C)N(C)C(=O)[C@@H](NC(=O)[C@H](C(C)C)N(C)C)C(C)C [Peptide 5a] (NMe2Val-V[NMeV]PP[Nphe]-NHBu)	820 nM	1500 nM	2200 nM	–	–	acts in the initial phase of microtubule network disruption
CCCCCCNC(=O)CN(Cc1ccccc1)C(=O)[C@@H]1CCCN1C(=O)[C@@H]1CCCN1C(=O)[C@H](C(C)C)N(C)C(=O)[C@@H](NC(=O)[C@H](C(C)C)N(C)C)C(C)C [Peptide 5b] (NMe2Val-V[NMeV]PP[Nphe]-NHHex)	2100 nM	~5000 nM	7200 nM	–	–	–
CCCCNC(=O)CN(C(=O)[C@@H]1CCCN1C(=O)[C@H](C(C)C)N(C)C(=O)[C@@H](NC(=O)[C@H](C(C)C)N(C)C)C(C)C)[C@@H](CC(C)C)C(=O)NCc1ccccc1 [Peptide 11c]	~5000 nM	> 10000 nM	7900 nM	–	–	–
CC(C)[C@H](NC(=O)[C@H](C(C)C)N(C)C)C(=O)N(C)[C@H](C(=O)N1CCC[C@H]1C(=O)N1CCC[C@H]1C(=O)NCc1ccccc1)C(C)C [cemadotin, reference compound] (NMe2Val-V[NMeV]PP-NHBn)	2.5 nM	1.3 nM	1 nM	–	–	–
CCCCNC(=O)CN(Cc1ccco1)C(=O)[C@@H]1CCCN1C(=O)[C@@H]1CCCN1C(=O)[C@H](C(C)C)N(C)C(=O)[C@@H](NC(=O)[C@H](C(C)C)N(C)C)C(C)C [Peptide 5i] (NMe2Val-V[NMeV]PP[NFurfurylGly]-NHBu)	1200 nM	3700 nM	> 10000 nM	–	–	–
